Reference: patent publication US8790675B2, “Biocide compositions comprising carbamates” (priority 2009, dated 2014)

Assay: Solubility of biocides in solvents at 25° C.
Details: for Solubility of biocides: Tebucanozole: Tebucanozole dissolved in the solvent, 25° C.
Experimental: Solubility of two fungicides, one herbicide and two insecticides in different dialkyl amides at 25° C. was tested.

Row | Compound | able to dissolve or disperse a wide range of biocides better than solvents known from the state of the art (wide range of biocides, versus state-of-the-art solvents) | Solubility of biocides: Tebucanozole
1 | CN(C)C(=O)OCCO [Example 5] | 20% | –
2 | CCCCNC(=O)OCCO [Example 7] | – | 20 % b.w.
3 | CCCNC(=O)OCCO [Example 8] | – | 23 % b.w.
